The text below walks through data of patent US20070093483A1, “Use of derivatives of 2, 4-dihydro-[1,2,4] triazole-3-thione as inhibitors of the enzyme myeloperoxidase (mpo)” (ASTRAZENECA AB, priority 2003, published 2007).

This assay concerns the target T1, human MPO (Homo sapiens, UniProt P05164).
T1 sequence (P05164 49-745): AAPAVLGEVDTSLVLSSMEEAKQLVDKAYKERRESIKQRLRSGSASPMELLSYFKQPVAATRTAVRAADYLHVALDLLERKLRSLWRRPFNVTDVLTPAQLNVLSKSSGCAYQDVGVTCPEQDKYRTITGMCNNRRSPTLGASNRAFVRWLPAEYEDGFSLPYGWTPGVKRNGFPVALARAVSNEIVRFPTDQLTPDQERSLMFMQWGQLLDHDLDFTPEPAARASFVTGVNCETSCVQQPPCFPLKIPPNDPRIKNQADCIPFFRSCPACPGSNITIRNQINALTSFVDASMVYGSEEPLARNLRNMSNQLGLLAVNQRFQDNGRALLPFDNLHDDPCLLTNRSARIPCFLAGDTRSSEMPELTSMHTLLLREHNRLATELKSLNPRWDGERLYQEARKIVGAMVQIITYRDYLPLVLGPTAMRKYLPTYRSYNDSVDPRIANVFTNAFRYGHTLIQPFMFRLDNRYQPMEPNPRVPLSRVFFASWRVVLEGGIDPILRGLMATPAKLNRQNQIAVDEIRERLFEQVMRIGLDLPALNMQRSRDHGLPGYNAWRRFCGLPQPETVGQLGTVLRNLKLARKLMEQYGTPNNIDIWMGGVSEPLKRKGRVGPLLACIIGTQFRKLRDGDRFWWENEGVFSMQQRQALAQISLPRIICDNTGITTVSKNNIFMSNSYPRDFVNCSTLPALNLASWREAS
In words: MPO inhibition screen (TMB oxidation, absorbance), with or without added tyrosine. The format is biochemical. As to conditions: in the presence of tyrosine (final 8 uM); human MPO 2.5 nM; H2O2 100 μM; pH 6.5. The protocol: Methods for the determination of MPO inhibitory activity are disclosed in co-pending patent application WO 02/090575. The pharmacological activity of compounds according to the invention was tested in the following screen in which the compounds were either tested alone or in the presence of added tyrosine:
Assay buffer: 20 mM sodium/potassium phosphate buffer pH 6.5 containing 10 mM taurine and 100 mM NaCl.
Developing reagent: 2 mM 3,3 ′,5,5′-tetramethylbenzidine (TMB), 200 μM KI, 200 mM acetate buffer pH 5.4 with 20% DNF.
To 10 μl of diluted compounds in assay buffer, 40 μl of human MPO (final concentration 2.5 nM), with or without 20 μM tyrosine (final concentration, if present, 8 uM), was added and the mixture was incubated for 10 minutes at ambient temperature. Then 50 μl of H2O2 (final concentration 100 μM), or assay buffer alone as a control, were added. After incubation for 10 minutes at ambient temperature, the reaction was stopped by adding 10 μl 0.2 mg/ml of catalase (final concentration 18 μg/ml). The reaction mixture was left for an additional 5 minutes before 100 μl of TMB developing reagent was added. The amount of oxidised 3,3′,5,5′-tetramethylbenzidine formed was then measured after about 5 minutes using absorbance spectroscopy at about […]. IC50 values were then determined using standard procedures.

`Cc1ccccc1-n1c(Cc2c[nH]c3ccccc23)n[nH]c1=S` [Example 74, 5-(1H-Indol-3-ylmethyl)-4-(2-methylphenyl)-2,4-dihydro-[1,2,4]triazole-3-thione]: the IC50 – broadly, the concentration that inhibits the measured activity by half – is 7.2 µM.

Regarding `OCC(c1ccccc1)c1n[nH]c(=S)n1-c1ccccc1` (stereo not shown) [Example 57, 5-(2-Hydroxy-1-phenylethyl)-4-phenyl-2,4-dihydro-[1,2,4]triazole-3-thione], the IC50 amounted to 23.6 µM.

Regarding `COc1ccc(OCc2n[nH]c(=S)n2CC2CCCO2)cc1` (stereo not shown) [Example 20, 5-(4-Methoxyphenoxymethyl)-4-(2-tetrahydrofuran-2-yl-methyl)-2,4-dihydro-[1,2,4]triazole-3-thione], the IC50 amounted to 11.3 µM.

In the case of `Fc1ccc(-n2c(Cc3ccccc3Cl)n[nH]c2=S)cc1` [Example 29, 5-(2-Chlorobenzyl)-4-(4-fluorophenyl)-2,4-dihydro-[1,2,4]triazole-3-thione], the IC50 amounted to 3.9 µM.
